tested on: Entamoeba histolytica; assay: Amoebicidal activity against trophozoite stage of Entamoeba histolytica HM-1:IMSS assessed as growth inhibition after 72 hrs by carboxyfluorescein diacetate/propidium iodide staining-based fluorescence microscopic analysis; assay type: functional, organism-based

With O=[N+]([O-])c1ccc(-c2ccc(/C=N/N(c3ccccc3)c3ccccc3)o2)cc1 as the compound, how does the IC50 read?
The IC50 was 16 µM.

For C(=N\Nc1ccccc1)/c1ccco1, which IC50 is on record?
Its IC50 is 120 µM.

C(=N\N=C\c1ccccc1)/c1ccccc1 was tested. Which IC50 did it give?
Its IC50 is 96 µM.

With Cc1ncc([N+](=O)[O-])n1CCO [METRONIDAZOLE] as the compound, how does the IC50 read?
Its IC50 is 6.8 µM.

How did the IC50 turn out when C(=N\N(c1ccccc1)c1ccccc1)/c1cccs1 was run?
The IC50 was 7.6 µM.

With O=[N+]([O-])c1ccc(-c2ccc(/C=N/N=C/c3ccc(-c4ccc([N+](=O)[O-])cc4)o3)o2)cc1 as the compound, how does the IC50 read?
The IC50 was 13 µM.

Which IC50 does the source give for O=[N+]([O-])c1ccc(-c2ccc(/C=N/Nc3ccccc3)o2)cc1 here?
Its IC50 is 0.98 µM.

How did the IC50 turn out when O=C(/C(=N/N=C(/C(=O)c1ccccc1)c1ccccc1)c1ccccc1)c1ccccc1 was run?
Its IC50 is 18 µM.

With C(=N\N(c1ccccc1)c1ccccc1)/c1ccccc1 as the compound, how does the IC50 read?
The IC50 was 78 µM.

O=[N+]([O-])c1cccc(/C=N/N(c2ccccc2)c2ccccc2)c1 was tested. Which IC50 did it give?
The IC50 was 19 µM.

tested on: Entamoeba histolytica; assay: Potency index, ratio of metronidazole IC50 to compound IC50 for trophozoite stage of Entamoeba histolytica HM-1:IMSS; assay type: functional

How did the “Ratio IC50” value turn out when O=[N+]([O-])c1ccc(-c2ccc(/C=N/Nc3ccccc3)o2)cc1 was run?
Its value is 7.

From ChEMBL document CHEMBL3585288, “Synthesis, characterization and evaluation of the substituent effect on the amoebicide activity of new hydrazone derivatives” (Medchemcomm, 2014)
